We go through eight compounds from patent US20060104907A1, “Biologically potent analogues of the Dmt-Tic pharmacophore and methods of use” (Government of the U.S.A., represented by the Secretary, …, priority 2004, published 2006).

Data set [1] concerns the target T1, δ-opioid receptor (Homo sapiens, UniProt P41143). The conditions noted are these: cited from earlier work.
For data set [2], the target named is T1, δ-opioid receptor. As to conditions: δ-opioid antagonist activity, literature; cited from earlier work.
In data set [3] the target is T2, δ-opioid receptors (Mus musculus, UniProt P32300).
T2 construct: preparations of mouse vas deferens (MVD, containing δ-opioid receptors); from tissue; host or cells: mouse vas deferens
T2 sequence (P32300 whole entry): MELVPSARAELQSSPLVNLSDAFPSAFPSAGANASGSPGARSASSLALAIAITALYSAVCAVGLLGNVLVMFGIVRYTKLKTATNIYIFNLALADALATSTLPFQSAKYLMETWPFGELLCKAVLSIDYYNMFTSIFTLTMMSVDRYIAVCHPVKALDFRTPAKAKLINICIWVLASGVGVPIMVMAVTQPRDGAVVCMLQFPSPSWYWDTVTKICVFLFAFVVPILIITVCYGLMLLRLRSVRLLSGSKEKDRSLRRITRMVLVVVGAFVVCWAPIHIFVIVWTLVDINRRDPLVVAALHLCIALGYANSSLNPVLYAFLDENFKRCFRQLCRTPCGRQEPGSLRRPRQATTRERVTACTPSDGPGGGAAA
Description: Functional bioactivity in mouse vas deferens (MVD), electrically-evoked twitch. It is filed as cell-based. The method, then: (§1) Preparations of myenteric plexus-longitudinal muscle obtained from male guinea-pig ileum (GPI, enriched in μ-opioid receptors) and preparations of mouse vas deferens (MVD, containing δ-opioid receptors) were used for field stimulation with bipolar rectangular pulses of supramaximal voltage (Melchiorri et al., Eur. J. Pharm., 195: 201-207 (1991)). Agonists were evaluated for their ability to inhibit the electrically-evoked twitch. The biological potency of the compounds was compared with that of the μ-opioid receptor agonist dermorphin in GPI and with that of the δ-opioid receptor agonist deltorphin C in MVD. The results are expressed as the IC50 values obtained from dose-response curves (Prism™, GraphPad). To evaluate antagonistic properties, compounds 2 and 3 were added to the bath and allowed to interact with tissue receptor sites 5 min before adding deltorphin C. The IC50 values (nM) represent the mean of not less than six fresh tissue samples±SE. […] IC50 and pA2 values (nM) are mean ±SE of at least six experiments conducted with fresh tissues.

The subject of data set [4] is μ-opioid receptors. Nature of the data set: Functional bioactivity in guinea-pig ileum (GPI), electrically-evoked twitch. The data set is classed as cell-based. The conditions noted are these: agonist activity, inhibition of electrically-evoked twitch. As for the experimental part:
as §1

In data set [5] the target is T3, μ-opioid receptors (Rattus norvegicus, UniProt P33535).
T3 construct: using rat brain synaptosomes (P2 fraction); from tissue; host or cells: rat brain synaptosomes (P2 fraction)
T3 sequence (P33535 whole entry): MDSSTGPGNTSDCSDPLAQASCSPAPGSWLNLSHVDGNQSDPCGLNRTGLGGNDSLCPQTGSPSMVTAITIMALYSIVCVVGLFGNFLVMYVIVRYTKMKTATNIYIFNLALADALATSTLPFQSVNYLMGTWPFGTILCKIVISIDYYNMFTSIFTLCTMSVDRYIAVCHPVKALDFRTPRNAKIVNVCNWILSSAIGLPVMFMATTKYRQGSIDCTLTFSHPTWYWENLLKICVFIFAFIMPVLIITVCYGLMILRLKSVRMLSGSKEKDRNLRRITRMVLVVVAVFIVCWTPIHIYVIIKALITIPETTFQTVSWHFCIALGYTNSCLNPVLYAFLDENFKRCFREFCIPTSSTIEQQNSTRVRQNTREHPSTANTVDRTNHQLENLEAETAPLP
Nature of the data set: Competitive receptor binding assay, rat brain synaptosomes (P2 fraction), [3H]DAMGO.

In data set [6] the target is T4, δ-opioid receptors (Rattus norvegicus, UniProt P33533).
T4 construct: using rat brain synaptosomes (P2 fraction); from tissue; host or cells: rat brain synaptosomes (P2 fraction)
T4 sequence (P33533 whole entry): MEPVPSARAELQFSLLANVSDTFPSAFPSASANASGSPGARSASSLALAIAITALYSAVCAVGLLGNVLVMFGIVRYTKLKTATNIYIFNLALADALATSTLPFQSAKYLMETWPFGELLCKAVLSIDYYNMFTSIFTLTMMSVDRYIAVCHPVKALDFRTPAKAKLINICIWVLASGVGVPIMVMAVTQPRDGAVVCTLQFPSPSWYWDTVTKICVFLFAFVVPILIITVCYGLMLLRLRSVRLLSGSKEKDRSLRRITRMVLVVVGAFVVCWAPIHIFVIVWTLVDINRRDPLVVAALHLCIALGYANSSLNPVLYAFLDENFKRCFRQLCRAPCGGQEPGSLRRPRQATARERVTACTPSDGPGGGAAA
Nature of the data set: Competitive receptor binding assay, rat brain synaptosomes (P2 fraction), [3H]DPDPE. The conditions noted are these: for fold decrease of δ-opioid receptor selectivity: compared to reference 1; for μ/δ (δ-opioid receptor selectivity): ratio Ki μ / Ki δ.

A further data set concerns the target T5, mouse δ-opioid receptors (Mus musculus, UniProt P32300).
T5 construct: NG108-15 (mouse N18 neuroblastoma x rat C6 glioma) cell line, which expresses mouse δ-opioid receptors; endogenous in cells; host or cells: NG108-15 (mouse N18 neuroblastoma x rat C6 glioma)
Nature of the data set: Confocal microscopic visualization of fluorescent probe binding in NG108-15 cells. The conditions noted are these: for blockage of fluorescence of probe 3 bound to δ-opioid receptors: NG108-15 cells preincubated with antagonist (naltrindole 0.2 μM, 5 min) before adding the probe. It is filed as cell-based. As for the experimental part:
Visualization of δ-opioid receptor sites with the inventive fluorescent probe was obtained by incubating (15 min at 35° C.) the fluorescent tripeptide 3 (0.2 μM) with the NG108-15 (mouse N18 neuroblastoma x rat C6 glioma) cell line, which expresses mouse δ-opioid receptors. […] Localization and visualization of opioid receptor binding sites were obtained by incubating the fluorescent probe with the NG108-15 cells as shown in the left half of the fluorescent photomicrograph obtained from the confocal scanning laser microscope (FIG. 3).

Data set [7] is described as follows: Fluorescence emission spectra and quantum yield. It is filed as physicochemical. The conditions noted are these: Tris/HCl buffer pH 6.6, excitation 350 nm. The method, then:
Fluorescence emission spectra were recorded on a Jobin Yvon-Spex FluoroMax-2 spectrofluorometer with 1 nm spectral resolution for excitation and emission. A peptide solution at a concentration of 2×10^−5M in Tris-HCl buffer, pH 6.6, was used. The excitation wavelength was 350 nm. Fluorescence quantum yield (φ) was determined relative to quinine sulfate (Fluka) in 1 N H2SO4 (φ=0.546) as a reference (Meech et al., Journal of Photochemistry, 23: 193 (1983)). The quantum yield was calculated according to the following equation: [formula] where the subscripts S and R refer to the sample ns and reference compound, respectively; E is the integrated area under the corrected emission spectrum; A is the absorbance of the solution at the excitation wavelength. Absorbance values were kept below 0.02 to minimise inner filter and self-quenching effects. Since both the sample and the reference were in aqueous solution, the correction for the refractive index (nS/nR)^2 was considered to be of no significant relevance.

The target in data set [8] is T3, μ-opioid receptors. As to conditions: rat brain synaptosomes; data taken from Balboni et al., J. Med Chem. 2004; read-out: Receptor affinity Ki^u; cited from earlier work.
Data set [9] addresses T4, δ-opioid receptors. The conditions noted are these: rat brain synaptosomes; data taken from Balboni et al., J. Med Chem. 2004; read-out: Receptor affinity Ki^δ; cited from earlier work.
In data set [10] the target is T2, δ-opioid receptors. As to conditions: cited from earlier work.

Counter-ions that a name gives are not always drawn. Like-named read-outs stand apart in the source and are kept apart here. Where only a bound is given, the exact number is not on record here.

T5 sequence (P32300 whole entry): as the sequence (P32300 whole entry) above
T1 sequence (P41143 whole entry): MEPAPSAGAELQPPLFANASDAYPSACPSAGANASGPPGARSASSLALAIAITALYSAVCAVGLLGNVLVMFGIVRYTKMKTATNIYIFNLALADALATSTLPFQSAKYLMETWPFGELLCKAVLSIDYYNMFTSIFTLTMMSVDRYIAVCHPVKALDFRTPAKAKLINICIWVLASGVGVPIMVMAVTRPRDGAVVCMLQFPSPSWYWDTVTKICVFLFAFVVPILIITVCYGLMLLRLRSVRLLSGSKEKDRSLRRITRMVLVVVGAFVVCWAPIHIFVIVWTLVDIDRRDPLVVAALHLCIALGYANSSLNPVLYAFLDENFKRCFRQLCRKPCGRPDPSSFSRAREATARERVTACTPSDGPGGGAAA

As to “2′,6′-dimethyl-L-tyrosine-1,2,3,4-tetrahydroisoquinoline-3-carboxylic acid [Dmt-Tic]”, the “Ki^μ/Ki^δ” value at δ-opioid receptor [1] (literature (Salvadori et al. 1995 and others)) was 150,780. Further, the pA2 at δ-opioid receptor [2] is on record as 8.2.
On to `Cc1cc(O)cc(C)c1C[C@H](N)C(=O)N1Cc2ccccc2C[C@H]1C(=O)N[C@@H](CCC(=O)O)C(=O)NCCCCCNC(=S)Nc1ccc(-c2c3ccc(=O)cc-3oc3cc(O)ccc23)c(C(=O)O)c1` (as salt: TFA) [Compound 3, 5-(3-{5-[2-({2-[2-amino-3-(4-hydroxy-2,6-dimethyl-phenyl)-propionyl]-1,2,3,4-tetrahydro-isoquinoline-3-carbonyl}-amino)-4-carboxy-butyrylamino]-pentyl}-thioureido)-2-(6-hydroxy-3-oxo-3H-xanten-9-yl)-benzoic acid], for which the melting point lay in the range of 169 to 171 °C.
Turning to `Cc1cc(O)cc(C)c1C[C@H](N)C(=O)N1Cc2ccccc2C[C@H]1C(=O)N[C@@H](CCC(=O)O)C(=O)NCCCCCN` [Compound 2, H-Dmt-Tic-Glu-NH-(CH2)5—NH2], the melting point is 163 to 165 °C. Moreover, the Kb at δ-opioid receptors [3] was 1.58 nM. Also, the MVD activity type result on δ-opioid receptors [3] (against [D-Ala2]deltorphin I dose-response curves) was “competitive antagonist”. For the same compound, the “MVD pA2” value on δ-opioid receptors [3] (antagonism of deltorphin C, Schild plot) amounted to 8.8. In the data set on μ-opioid receptors [4], the IC50 is greater than 1000 nM. At μ-opioid receptors [5], the Ki was 380 ± 65 nM. For the same compound, the “fold increase of μ-opioid receptor affinity” value on μ-opioid receptors [5] (compared to the reference tripeptide (1)) was 3.6 fold. In addition, at δ-opioid receptors [6], the affinity corresponds to a Ki of 0.22 ± 0.04 nM, the “fold decrease of δ-opioid receptor selectivity” value was 13 fold and the “μ/δ (δ-opioid receptor selectivity)” value came to 1700. Also, at δ-opioid receptors [6] (compared to reference H-Dmt-Tic-Glu-NH2 (1)), the “fold decrease in affinity for δ-opioid receptors” value came to 3.7 fold.
Take `Cc1cc(O)cc(C)c1C[C@H](N)C(=O)N1Cc2ccccc2C[C@H]1C(=O)N[C@@H](CCC(=O)O)C(=O)NCCCCCNC(=S)Nc1ccc(-c2c3ccc(=O)cc-3oc3cc(O)ccc23)c(C(=O)O)c1` [Compound 3, 5-(3-{5-[2-({2-[2-amino-3-(4-hydroxy-2,6-dimethyl-phenyl)-propionyl]-1,2,3,4-tetrahydro-isoquinoline-3-carbonyl}-amino)-4-carboxy-butyrylamino]-pentyl}-thioureido)-2-(6-hydroxy-3-oxo-3H-xanten-9-yl)-benzoic acid]: on mouse δ-opioid receptors (NG108-15 cells, competition with δ-opioid receptor antagonists), the “residual fluorescence after antagonist preincubation” value is “ca. 10%”. The same compound had a Ki on μ-opioid receptors [5] of 152 ± 44 nM. Moreover, on δ-opioid receptors [6], the Ki was found to be 0.035 ± 0.01 nM, the “fold decrease of δ-opioid receptor selectivity” value is listed as 5 fold and the “μ/δ (δ-opioid receptor selectivity)” value is 4,370. Also, the “fold more δ-selective than fluorescent naltrindole derivative” value at δ-opioid receptors [6] (comparator from Korlipara et al. 1997) is 857 fold. Further, the “fold more δ-selective than fluorescent naltrindole derivative” value on δ-opioid receptors [6] (comparator from Kshirsagar et al. 1998) stood at 115 fold. Moreover, the “δ-opioid receptor binding affinity (in words)” value on δ-opioid receptors [6] (rat brain synaptosomes) is listed as “subnanomolar”.
As for `Oc1ccc2c3c1O[C@H]1c4[nH]c5ccccc5c4C[C@@]4(O)[C@@H](C2)N(CC2CC2)CC[C@]314` [naltrindole], the “blockage of fluorescence of probe 3 bound to δ-opioid receptors” value was “essentially eliminated the fluorescence” at mouse δ-opioid receptors and “considerable blockage of the fluorescence” at mouse δ-opioid receptors (listed as NTI).
With Ac-Glu-NH(CH2)5—NH—(C═S)—NH-fluorescein, in data set [7], the fluorescence emission maximum was 515 nm.
As for H-Dmt-Tic-Glu-NH2 [Compound 1], the Ki at μ-opioid receptors [8] is 1360 ± 268 nM; on δ-opioid receptors [9], 0.06 ± 0.008 nM. For the same compound, the IC50 with μ-opioid receptors [4] was greater than 1000 nM; at δ-opioid receptors [10] (agonist activity, inhibition of electrically-evoked twitch, data taken from Balboni et al. 2004, read-out: MVD (IC50)), 2.58 ± 0.8 nM. Further, on δ-opioid receptors [10] (Balboni et al., J. Med. Chem. 2004), the MVD activity type entry is recorded as “partial δ-opioid agonist”.
Take H-Tyr-Tic-Phe-(Phe)-OH [TIPP]: the δ-selectivity on δ-opioid receptor [1] (Arttamangkul et al., Mol. Pharmacol. 2000) is listed as > 20,000.

The pA2 is the negative logarithm of the molar antagonist concentration that doubles the agonist concentration needed for the same response. As usually defined, the melting point is the temperature, or range, at which the solid turns liquid. The term IC50 denotes the concentration that gives 50% inhibition. By Ki is commonly meant a measure of affinity in units of concentration, obtained from inhibition or displacement.
